Laboratory results published in PMC222928 (BMC Biochemistry, 2003).

B1: aaTHEP1 (Aquifex aeolicus VF5) (protein)
chain: MKIIITGEPGVGKTTLVKKIVERLGKRAIGFWTEEVRDPETKKRTGFRIITTEGKKKIFSSKFFTSKKLVGSYGVNVQYFEELAIPILERAYREAKKDRRKVIIIDEIGKMELFSKKFRDLVRQIMHDPNVNVVATIPIRDVHPLVKEIRRLPGAVLIELTPENRDVILEDILSLLER

Experiments:
[1] = target: T1, aaTHEP1 (Aquifex aeolicus, UniProt O67322); assay: inhibition of [γ-32P]ATP hydrolysis, TLC on PEI-cellulose; assay type: biochemical
T1 sequence (O67322 1-178): B1 chain

[2] = target: T1, aaTHEP1; assay: inhibition of [γ-32P]ATP hydrolysis, TLC autoradiography; assay type: biochemical; conditions: 5 and 1000 μM ATP, 5 and 1000 μM GDP, 70°C, 5 min
[3] = substrate: Nc1ncnc2c1ncn2[C@@H]1O[C@H](COP(=O)(O)OP(=O)(O)OP(=O)(O)O)[C@@H](O)[C@H]1O; assay: purified protein; conditions: 70°C, 25 mM MgCl2, 5 mM KCl, pH 7.0, labelled compound

Row | Molecule | Ki [1] [µM] | other results
1 | Nc1nc2c(ncn2[C@H]2C[C@H](O)[C@@H](COP(=O)(O)OP(=O)(O)OP(=O)(O)O)O2)c(=O)[nH]1 [dGTP] | 18 ± 2 | 
2 | Nc1nc2c(ncn2[C@@H]2O[C@H](COP(=O)(O)OP(=O)(O)O)[C@@H](O)[C@H]2O)c(=O)[nH]1 [GDP] |  | inhibition of [γ-32P]ATP hydrolysis, TLC autoradiography [2]: GDP also inhibits ATP-hydrolysis, whereas GMP, AMP, and UMP show no inhibition
3 | O=c1ccn([C@@H]2O[C@H](COP(=O)(O)OP(=O)(O)OP(=O)(O)O)[C@@H](O)[C@H]2O)c(=O)[nH]1 [UTP] | 5 ± 2 | 
4 | Nc1ncnc2c1ncn2[C@H]1C[C@H](O)[C@@H](COP(=O)(O)OP(=O)(O)OP(=O)(O)O)O1 [dATP] | 3 ± 0.2 | 
5 | Nc1nc2c(ncn2[C@@H]2O[C@H](COP(=O)(O)OP(=O)(O)OP(=O)(O)O)[C@@H](O)[C@H]2O)c(=O)[nH]1 [GTP] | 57 ± 20 | 
6 | Cc1cn([C@H]2C[C@H](O)[C@@H](COP(=O)(O)OP(=O)(O)OP(=O)(O)O)O2)c(=O)[nH]c1=O [dTTP] | 6 ± 2 | 
7 | Nc1ccn([C@H]2C[C@H](O)[C@@H](COP(=O)(O)OP(=O)(O)OP(=O)(O)O)O2)c(=O)n1 [dCTP] | 9 ± 3 | 
8 | Nc1ccn([C@@H]2O[C@H](COP(=O)(O)OP(=O)(O)OP(=O)(O)O)[C@@H](O)[C@H]2O)c(=O)n1 [CTP] | 6 ± 2 | 
9 | B1 |  | Km [3]: 5.5 µM; kcat [3]: 0.005 s⁻¹
